Results: PubChem BioAssay AID2060507 (Molecular Pharmacology Branch, DTP, NCI, 2025)

Test system: 519858-162-T-J1-PDC complex spheroid viability
Test: Anticancer human tumor 519858-162-T-J1-PDC patient-derived colon adenocarcinoma cell line growth inhibition [GQUAD]
Details: for IC50: curve of first compound; for viability, T/C: stronger effect = lower value
Outline: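 Tumor cells were grown as complex spheroids with HUVEC endothelial cells and mesenchymal stem cells as stroma. G-quadruplex stabilizers were combined with targeted agents over half-log dilutions from near the clinical Cmax, or from 10 microM.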

[1] = second compound 0.0316 µM, first compound 0.0316 µM
[2] = second compound 0.0316 µM, first compound 0.1 µM
[3] = second compound 0.0316 µM, first compound 0.316 µM
[4] = second compound 0.0316 µM, first compound 1 µM
[5] = second compound 0.0316 µM, first compound 3.16 µM
[6] = second compound 0.0316 µM, first compound 10 µM
[7] = second compound 0.1 µM, first compound 0.0316 µM
[8] = second compound 0.1 µM, first compound 0.1 µM
[9] = second compound 0.1 µM, first compound 0.316 µM
[10] = second compound 0.1 µM, first compound 1 µM
[11] = second compound 0.1 µM, first compound 3.16 µM
[12] = second compound 0.1 µM, first compound 10 µM
[13] = second compound 0.316 µM, first compound 0.0316 µM
[14] = second compound 0.316 µM, first compound 0.1 µM
[15] = second compound 0.316 µM, first compound 0.316 µM
[16] = second compound 0.316 µM, first compound 1 µM
[17] = second compound 0.316 µM, first compound 3.16 µM
[18] = second compound 0.316 µM, first compound 10 µM
[19] = second compound 1 µM, first compound 0.0316 µM
[20] = second compound 1 µM, first compound 0.1 µM
[21] = second compound 1 µM, first compound 0.316 µM
[22] = second compound 1 µM, first compound 1 µM
[23] = second compound 1 µM, first compound 3.16 µM
[24] = second compound 1 µM, first compound 10 µM
[25] = second compound 3.16 µM, first compound 0.0316 µM
[26] = second compound 3.16 µM, first compound 0.1 µM
[27] = second compound 3.16 µM, first compound 0.316 µM
[28] = second compound 3.16 µM, first compound 1 µM
[29] = second compound 3.16 µM, first compound 3.16 µM
[30] = second compound 3.16 µM, first compound 10 µM
[31] = second compound 10 µM, first compound 0.0316 µM
[32] = second compound 10 µM, first compound 0.1 µM
[33] = second compound 10 µM, first compound 0.316 µM
[34] = second compound 10 µM, first compound 1 µM
[35] = second compound 10 µM, first compound 3.16 µM
[36] = second compound 10 µM, first compound 10 µM
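Also: spheroids exposed to compounds for 7 days.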
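For viability, T/C in this document: 100% = DMSO vehicle control viability.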

Question: What does the source list for `CC(C)(O)C1CCC(Nc2ccc3ncc(-c4cccc(C(F)(F)F)c4)n3n2)CC1` (stereo unspecified) + Cc1cnc(CNC(=O)c2c(=O)c3ccc(N4CCCN(C)CC4)nc3n3c2sc2ccccc23)cn1?
Answer: IC50 (second compound 0.0316 µM): 2.15 µM; IC50 (second compound 0.1 µM): 1.98 µM; IC50 (second compound 0.316 µM): 1.45 µM; IC50 (second compound 1 µM): 0.262 µM; IC50 (second compound 3.16 µM): < 0.0316 µM; IC50 (second compound 10 µM): 0.0316 µM; viability, T/C [1]: 101%; viability, T/C [2]: 111%; viability, T/C [3]: 93.2%; viability, T/C [4]: 103%; viability, T/C [5]: 11%; viability, T/C [6]: 36.5%; viability, T/C [7]: 87.6%; viability, T/C [8]: 95.5%; viability, T/C [9]: 107%; viability, T/C [10]: 105%; viability, T/C [11]: 8.82%; viability, T/C [12]: 24.6%; viability, T/C [13]: 107%; viability, T/C [14]: 72.4%; viability, T/C [15]: 63.5%; viability, T/C [16]: 80.9%; viability, T/C [17]: 20.8%; viability, T/C [18]: 31.2%; viability, T/C [19]: 71.1%; viability, T/C [20]: 68.8%; viability, T/C [21]: 42.1%; viability, T/C [22]: 48.5%; viability, T/C [23]: 42.4%; viability, T/C [24]: 52.3%; viability, T/C [25]: 37.5%; viability, T/C [26]: 43.1%; viability, T/C [27]: 50.8%; viability, T/C [28]: 47.1%; viability, T/C [29]: 31.4%; viability, T/C [30]: 20.8%; viability, T/C [31]: 36.4%; viability, T/C [32]: 45.3%; viability, T/C [33]: 52.3%; viability, T/C [34]: 64.7%; viability, T/C [35]: 9.24%; viability, T/C [36]: 0.75%

Question: `O=C(c1cc(Cc2n[nH]c(=O)c3ccccc23)ccc1F)N1CCN(C(=O)C2CC2)CC1` + Cc1cnc(CNC(=O)c2c(=O)c3ccc(N4CCCN(C)CC4)nc3n3c2sc2ccccc23)cn1 was tested. Which IC50 (second compound 0.0316 µM) did it give?
Answer: > 10 µM

Question: What about the IC50 (second compound 0.1 µM) of the same molecule?
Answer: > 10 µM

Question: And the IC50 (second compound 0.316 µM)?
Answer: > 10 µM

Question: And the IC50 (second compound 1 µM)?
Answer: > 10 µM

Question: What about the IC50 (second compound 3.16 µM) of the same molecule?
Answer: < 0.0316 µM

Question: And the IC50 (second compound 10 µM)?
Answer: < 0.0316 µM

Question: What about the viability, T/C [1] of the same molecule?
Answer: 92.2%

Question: And the viability, T/C [2]?
Answer: 89.5%

Question: And the viability, T/C [3]?
Answer: 89.7%

Question: And the viability, T/C [4]?
Answer: 81.5%

Question: And the viability, T/C [5]?
Answer: 64.2%

Question: And the viability, T/C [6]?
Answer: 74.7%

Question: And the viability, T/C [7]?
Answer: 52.6%

Question: What about the viability, T/C [8] of the same molecule?
Answer: 65.7%

Question: What about the viability, T/C [9] of the same molecule?
Answer: 65.3%

Question: What about the viability, T/C [10] of the same molecule?
Answer: 58.8%

Question: What about the viability, T/C [11] of the same molecule?
Answer: 48.3%

Question: What about the viability, T/C [12] of the same molecule?
Answer: 74.5%

Question: And the viability, T/C [13]?
Answer: 82.6%

Question: And the viability, T/C [14]?
Answer: 72.4%

Question: And the viability, T/C [15]?
Answer: 50.3%

Question: And the viability, T/C [16]?
Answer: 47.6%

Question: And the viability, T/C [17]?
Answer: 52.9%

Question: And the viability, T/C [18]?
Answer: 60.6%

Question: And the viability, T/C [19]?
Answer: 68.6%

Question: And the viability, T/C [20]?
Answer: 67.5%

Question: And the viability, T/C [21]?
Answer: 48.3%

Question: What about the viability, T/C [22] of the same molecule?
Answer: 64.4%

Question: And the viability, T/C [23]?
Answer: 45.5%

Question: And the viability, T/C [24]?
Answer: 54.6%

Question: What about the viability, T/C [25] of the same molecule?
Answer: 60%

Question: And the viability, T/C [26]?
Answer: 31.8%

Question: And the viability, T/C [27]?
Answer: 39.6%

Question: And the viability, T/C [28]?
Answer: 39.2%

Question: What about the viability, T/C [29] of the same molecule?
Answer: 47.4%

Question: What about the viability, T/C [30] of the same molecule?
Answer: 41.2%

Question: What about the viability, T/C [31] of the same molecule?
Answer: 47.9%

Question: What about the viability, T/C [32] of the same molecule?
Answer: 46.5%

Question: And the viability, T/C [33]?
Answer: 49.7%

Question: And the viability, T/C [34]?
Answer: 44.6%

Question: And the viability, T/C [35]?
Answer: 49%

Question: What about the viability, T/C [36] of the same molecule?
Answer: 57.2%

Question: How did the IC50 (second compound 0.0316 µM) turn out when `CC1COCCN1c1cc(C2(O)CC3CCC(C2)O3)c2cnn(-c3ccn[nH]3)c2n1` (stereo unspecified) + Cc1cnc(CNC(=O)c2c(=O)c3ccc(N4CCCN(C)CC4)nc3n3c2sc2ccccc23)cn1 was run?
Answer: 6.31 µM

Question: What about the IC50 (second compound 0.1 µM) of the same molecule?
Answer: 3.16 µM

Question: What about the IC50 (second compound 0.316 µM) of the same molecule?
Answer: 3.2 µM

Question: And the IC50 (second compound 1 µM)?
Answer: 0.235 µM

Question: What about the IC50 (second compound 3.16 µM) of the same molecule?
Answer: < 0.0316 µM

Question: What about the IC50 (second compound 10 µM) of the same molecule?
Answer: < 0.0316 µM

Question: What about the viability, T/C [1] of the same molecule?
Answer: 64.5%

Question: What about the viability, T/C [2] of the same molecule?
Answer: 77.8%

Question: What about the viability, T/C [3] of the same molecule?
Answer: 92.2%

Question: And the viability, T/C [4]?
Answer: 77.6%

Question: What about the viability, T/C [5] of the same molecule?
Answer: 82%

Question: And the viability, T/C [6]?
Answer: 30.6%

Question: And the viability, T/C [7]?
Answer: 106%

Question: And the viability, T/C [8]?
Answer: 85.8%

Question: What about the viability, T/C [9] of the same molecule?
Answer: 96.3%

Question: And the viability, T/C [10]?
Answer: 44.8%

Question: What about the viability, T/C [11] of the same molecule?
Answer: 61.3%

Question: What about the viability, T/C [12] of the same molecule?
Answer: 57.7%

Question: And the viability, T/C [13]?
Answer: 65.6%

Question: What about the viability, T/C [14] of the same molecule?
Answer: 60%

Question: And the viability, T/C [15]?
Answer: 51.7%

Question: What about the viability, T/C [16] of the same molecule?
Answer: 62.7%

Question: What about the viability, T/C [17] of the same molecule?
Answer: 49.2%

Question: What about the viability, T/C [18] of the same molecule?
Answer: 29.9%

Question: And the viability, T/C [19]?
Answer: 59.3%

Question: And the viability, T/C [20]?
Answer: 60.8%

Question: And the viability, T/C [21]?
Answer: 41.6%

Question: What about the viability, T/C [22] of the same molecule?
Answer: 43.4%

Question: What about the viability, T/C [23] of the same molecule?
Answer: 50.5%

Question: What about the viability, T/C [24] of the same molecule?
Answer: 39.6%

Question: And the viability, T/C [25]?
Answer: 45.7%

Question: And the viability, T/C [26]?
Answer: 38.9%

Question: What about the viability, T/C [27] of the same molecule?
Answer: 44.9%

Question: And the viability, T/C [28]?
Answer: 42.4%

Question: And the viability, T/C [29]?
Answer: 26.8%

Question: And the viability, T/C [30]?
Answer: 23.8%

Question: What about the viability, T/C [31] of the same molecule?
Answer: 37.7%

Question: What about the viability, T/C [32] of the same molecule?
Answer: 44%

Question: What about the viability, T/C [33] of the same molecule?
Answer: 37.7%

Question: What about the viability, T/C [34] of the same molecule?
Answer: 39.2%

Question: And the viability, T/C [35]?
Answer: 34.1%

Question: What about the viability, T/C [36] of the same molecule?
Answer: 23.7%
